Article PMC6199744, “Development of Chemical Proteomics for the Folateome and Analysis of the Kinetoplastid Folateome” (ACS Infectious Diseases, 2018)
Like-named read-outs stand apart in the source and are kept apart here.

Experiments:
Assay type in all cases: binding
[1] = target: T1, HeLa cell extract proteins (Homo sapiens, UniProt P16152)
T1 construct: endogenous in cells; host or cells: HeLa cell extract
T1 sequence (P16152 1-277): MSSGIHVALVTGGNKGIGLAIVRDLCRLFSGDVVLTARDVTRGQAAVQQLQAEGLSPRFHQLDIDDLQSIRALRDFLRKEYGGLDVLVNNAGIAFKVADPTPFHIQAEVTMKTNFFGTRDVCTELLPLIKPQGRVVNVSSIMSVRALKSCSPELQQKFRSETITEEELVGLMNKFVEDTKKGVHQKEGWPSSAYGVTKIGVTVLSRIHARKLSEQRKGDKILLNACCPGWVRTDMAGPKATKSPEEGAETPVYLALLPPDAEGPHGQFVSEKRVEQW

[2] = target: T2, HeLa cell extract proteins (Homo sapiens, UniProt P25205)
T2 construct: endogenous in cells; host or cells: HeLa cell extract
T2 sequence (P25205 1-808): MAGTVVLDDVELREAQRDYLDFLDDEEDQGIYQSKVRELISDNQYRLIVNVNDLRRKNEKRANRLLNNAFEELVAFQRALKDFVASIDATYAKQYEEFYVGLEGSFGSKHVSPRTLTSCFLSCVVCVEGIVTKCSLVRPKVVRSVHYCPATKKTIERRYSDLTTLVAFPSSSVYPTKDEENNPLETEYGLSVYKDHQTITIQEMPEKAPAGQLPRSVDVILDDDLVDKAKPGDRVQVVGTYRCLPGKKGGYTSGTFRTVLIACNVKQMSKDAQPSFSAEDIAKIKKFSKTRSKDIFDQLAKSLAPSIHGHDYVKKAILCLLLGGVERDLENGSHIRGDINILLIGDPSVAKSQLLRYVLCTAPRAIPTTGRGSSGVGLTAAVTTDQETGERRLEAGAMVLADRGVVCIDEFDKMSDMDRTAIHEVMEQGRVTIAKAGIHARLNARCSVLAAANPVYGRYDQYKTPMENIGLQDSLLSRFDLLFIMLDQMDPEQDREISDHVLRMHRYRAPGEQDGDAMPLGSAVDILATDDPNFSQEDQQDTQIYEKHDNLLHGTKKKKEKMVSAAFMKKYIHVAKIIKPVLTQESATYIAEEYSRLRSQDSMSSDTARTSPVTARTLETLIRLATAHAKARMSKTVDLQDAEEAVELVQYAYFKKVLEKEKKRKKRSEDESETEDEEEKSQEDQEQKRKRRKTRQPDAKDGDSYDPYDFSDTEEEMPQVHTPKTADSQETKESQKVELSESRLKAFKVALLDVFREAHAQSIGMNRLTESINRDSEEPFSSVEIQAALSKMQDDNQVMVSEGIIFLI

[3] = target: T3, HeLa cell extract proteins (Homo sapiens, UniProt Q03393)
T3 construct: endogenous in cells; host or cells: HeLa cell extract
T3 sequence (Q03393 1-145): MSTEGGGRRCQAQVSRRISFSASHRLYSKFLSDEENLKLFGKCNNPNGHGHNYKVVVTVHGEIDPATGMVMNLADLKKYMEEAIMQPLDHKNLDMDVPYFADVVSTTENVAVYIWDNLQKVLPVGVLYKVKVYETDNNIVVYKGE

[4] = target: T4, HeLa cell extract proteins (Homo sapiens, UniProt Q2TB90)
T4 construct: endogenous in cells; host or cells: HeLa cell extract
T4 sequence (Q2TB90 1-917): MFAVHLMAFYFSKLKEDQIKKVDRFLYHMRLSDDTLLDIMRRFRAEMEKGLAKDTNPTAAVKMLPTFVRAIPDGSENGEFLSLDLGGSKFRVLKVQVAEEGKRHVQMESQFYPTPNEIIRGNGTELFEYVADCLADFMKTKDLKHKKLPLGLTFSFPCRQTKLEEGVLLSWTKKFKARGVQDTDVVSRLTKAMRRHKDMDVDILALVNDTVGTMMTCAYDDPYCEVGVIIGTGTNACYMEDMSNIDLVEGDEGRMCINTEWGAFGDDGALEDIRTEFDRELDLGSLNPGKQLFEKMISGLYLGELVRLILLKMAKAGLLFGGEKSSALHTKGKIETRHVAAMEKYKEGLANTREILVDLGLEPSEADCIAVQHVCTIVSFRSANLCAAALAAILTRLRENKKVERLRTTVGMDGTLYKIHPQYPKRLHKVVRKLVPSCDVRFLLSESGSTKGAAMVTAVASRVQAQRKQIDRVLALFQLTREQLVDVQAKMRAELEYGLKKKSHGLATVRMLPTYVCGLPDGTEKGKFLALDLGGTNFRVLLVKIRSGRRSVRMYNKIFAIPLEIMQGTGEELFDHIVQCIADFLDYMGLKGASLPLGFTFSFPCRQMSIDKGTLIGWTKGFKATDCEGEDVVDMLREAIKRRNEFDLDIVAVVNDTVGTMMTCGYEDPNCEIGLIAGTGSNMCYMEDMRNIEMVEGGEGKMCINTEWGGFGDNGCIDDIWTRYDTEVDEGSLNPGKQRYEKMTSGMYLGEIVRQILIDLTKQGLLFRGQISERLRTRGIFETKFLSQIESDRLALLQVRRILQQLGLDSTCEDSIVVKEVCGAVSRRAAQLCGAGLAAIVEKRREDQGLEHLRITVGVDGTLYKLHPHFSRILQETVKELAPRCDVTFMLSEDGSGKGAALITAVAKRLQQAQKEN

[5] = target: T5, HeLa cell extract proteins (Homo sapiens, UniProt Q99497)
T5 construct: endogenous in cells; host or cells: HeLa cell extract
T5 sequence (Q99497 1-189): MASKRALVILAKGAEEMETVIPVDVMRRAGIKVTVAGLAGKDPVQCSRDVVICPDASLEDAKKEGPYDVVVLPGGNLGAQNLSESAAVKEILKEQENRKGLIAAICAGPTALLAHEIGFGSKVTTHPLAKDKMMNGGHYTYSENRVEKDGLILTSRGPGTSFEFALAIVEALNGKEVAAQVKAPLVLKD

[6] = target: T6, HeLa cell extract proteins (Homo sapiens, UniProt Q9NR28)
T6 construct: endogenous in cells; host or cells: HeLa cell extract
T6 sequence (Q9NR28 22-239): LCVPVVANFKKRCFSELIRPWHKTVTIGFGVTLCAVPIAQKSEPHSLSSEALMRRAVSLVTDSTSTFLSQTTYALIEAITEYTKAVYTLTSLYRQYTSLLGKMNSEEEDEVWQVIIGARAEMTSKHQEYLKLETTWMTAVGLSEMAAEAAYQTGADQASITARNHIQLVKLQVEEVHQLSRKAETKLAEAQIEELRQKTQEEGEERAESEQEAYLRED

[7] = HeLa, protein DIABLO (DIABLO HOMOLOG, MIT[…])
[8] = HeLa, protein DJ-1 (PROTEIN DJ-1.)

Nc1nc2c(c(=O)[nH]1)N(C=O)C(CNc1ccc(C(=O)N[C@@H](CCC(=O)O)C(=O)O)cc1)CN2 (stereo partly drawn) [LEU, leucovorin]
fold changes relative to vehicle control ([1]; protein CBR1, HeLa): 0.81
fold changes relative to vehicle control ([2]; HeLa, protein MCM3): 0.91
fold changes relative to vehicle control ([3]; protein PTS, HeLa): 0.83
fold changes relative to vehicle control ([4]; HeLa, protein HKDC1): 0.89
fold changes relative to vehicle control ([5]; HeLa, captured protein DJ-1): 1.1
fold changes relative to vehicle control [6, 7]: 1.06

Nc1nc2[nH]cc(CCc3ccc(C(=O)N[C@@H](CCC(=O)O)C(=O)O)cc3)c2c(=O)[nH]1 [PTX, pemetrexed]
fold changes relative to vehicle control [1]: 0.8
fold changes relative to vehicle control [2]: 1.03
fold changes relative to vehicle control [3]: 0.23
fold changes relative to vehicle control [4]: 0.89
fold changes relative to vehicle control [5]: 1.28
fold changes relative to vehicle control [6]: 1.01

CCCCCCOc1ccc(Cc2cnc(N)nc2N)cc1 [compound 1]
fold changes relative to vehicle control ([1]; HeLa, protein CBR1): 0.89
fold changes relative to vehicle control ([2]; protein MCM3, HeLa): 0.94
fold changes relative to vehicle control ([3]; captured protein PTS, HeLa): 0.72
fold changes relative to vehicle control ([4]; captured protein HKDC1, HeLa): 1
fold changes relative to vehicle control [5, 8]: 1.34 fold
fold changes relative to vehicle control ([6]; captured protein DIABLO, HeLa): 1.09

CCCCCCOc1cccc(Cc2cnc(N)nc2N)c1 [compound 2]
fold changes relative to vehicle control ([1]; HeLa, protein CBR1): 1.14
fold changes relative to vehicle control ([2]; protein MCM3, HeLa): 1.38
fold changes relative to vehicle control ([3]; captured protein PTS, HeLa): 1.01
fold changes relative to vehicle control ([4]; captured protein HKDC1, HeLa): 1.1
fold changes relative to vehicle control [5, 8]: 2.24 fold
fold changes relative to vehicle control ([6]; captured protein DIABLO, HeLa): 0.97

Nc1nc2cccc(-c3ccccc3)c2n1Cc1ccc(Cl)c(Cl)c1 [compound 3]
fold changes relative to vehicle control ([1]; HeLa, protein CBR1): 1.02
fold changes relative to vehicle control ([2]; protein MCM3, HeLa): 1.29
fold changes relative to vehicle control ([3]; captured protein PTS, HeLa): 1.1
fold changes relative to vehicle control ([4]; captured protein HKDC1, HeLa): 1.05
fold changes relative to vehicle control [5, 8]: 0.85 fold
fold changes relative to vehicle control ([6]; captured protein DIABLO, HeLa): 1.01

NCCOCCOCC(=O)Nc1nc2ncc(CNc3ccc(C(=O)NC(CCC(=O)O)C(=O)O)cc3)nc2c(=O)[nH]1 (stereo not drawn) [compound 6]
fold changes relative to vehicle control ([1]; protein CBR1, HeLa): 0.89
fold changes relative to vehicle control ([2]; HeLa, protein MCM3): 1.01
fold changes relative to vehicle control ([3]; protein PTS, HeLa): 0.39
fold changes relative to vehicle control ([4]; HeLa, protein HKDC1): 1.06
fold changes relative to vehicle control ([5]; HeLa, captured protein DJ-1): 1.36
fold changes relative to vehicle control ([6]; HeLa, protein DIABLO (DIABLO HOMOLOG, MITOCHONDRIAL PRECURSOR)): 0.99

NCCCNc1ccc(C(=O)NC(CCC(=O)O)C(=O)O)cc1 (stereo not drawn) [compound 7]
fold changes relative to vehicle control ([1]; protein CBR1, HeLa): 0.92
fold changes relative to vehicle control ([2]; HeLa, protein MCM3): 0.93
fold changes relative to vehicle control ([3]; protein PTS, HeLa): 1.03
fold changes relative to vehicle control ([4]; HeLa, protein HKDC1): 1.09
fold changes relative to vehicle control ([5]; HeLa, captured protein DJ-1): 1.06
fold changes relative to vehicle control [6, 7]: 1.05
